Laboratory results published in US10111874B2, “Combination therapies for treatment of cancer” (Araxes Pharma LLC, priority 2014, dated 2018).

The compounds below were run against T1, KRAS G12C 1-169, his-tagged protein, GDP-loaded (Homo sapiens, UniProt P01116, G12C) (assay: Biochemical assay: covalent binding to KRAS G12C analyzed by mass spectrometry). Conditions: compounds 1-47, measured at 24 h.
T1 construct: KRAS G12C 1-169, his-tagged protein, GDP-loaded
Method: Compounds were tested for activity as follows:
Compounds were diluted to 50× final test concentration in DMSO in 96-well storage plates. […] Reactions were mixed carefully and thoroughly by pipetting up/down with a 200 μl multi-channel pipettor. […] 5 μl of 2% formic acid (Fisher cat#A117) in DI H2O was then added to each well followed by mixing with a pipette. The plate was then resealed with aluminum seal and stored on dry ice until analyzed as described below.
The above described assays were analyzed by mass spectrometry according to the following procedure:
The MS instrument is set to positive polarity, 2 GHz resolution, and low mass (1700) mode and allowed to equilibrate for 30 minutes. The instrument is then calibrated, switched to acquisition mode and the appropriate method loaded.
After another 30 minute equilibration time, a blank batch (i.e., buffer) is run to ensure equipment is operating properly. The samples are thawed at 37° C. for 10 minutes, briefly centrifuged, and transfer to the bench top. Wells A1 and H12 are spiked with 1 μL 500 μM internal standard peptide, and the plates centrifuged at 2000×g for 5 minutes. The method is then run and masses of each individual well recorded.
The masses (for which integration data is desired) for each well are pasted into the platemap and exported from the analysis. Masses for the internal standards are exported as well. The data at 50 ppm is extracted for the +19 charge state, and identity of well A1 is assigned using the internal standard spike and integrated. Peak data is exported as a TOF list and the above steps are repeated individually, for the +20, 21, 22, 23, 24, and 25 charge states.
In the case of `C=CC(=O)N1CCN(c2ncnc3cc(Cl)c(-c4cccc(Cl)c4)cc23)CC1` [Compound I-5, 1-(4-(7-chloro-6-(3-chlorophenyl)quinazolin-4-yl)piperazin-1-yl)prop-2-en-1-one], the Binding % is reported as “+++ (+++indicates binding activity greater than 50% and up to 75%)”. `C=CC(=O)NC1CN(C2CN(C(=O)CNc3cc(Cl)c(Cl)cc3O)C2)C1` [Example 39, N-(1′-(2-(4,5-dichloro-2-hydroxyphenylamino)acetyl)-1,3′-biazetidin-3-yl)acrylamide] was tested, and the Binding % was “+ (+indicates binding activity from 5% to 25%)”. In the case of `C=CC(=O)N1CCN(c2ccnc3cc(Cl)c(-c4ccccc4Cl)cc23)CC1` [Compound I-27, 1-(4-(7-chloro-6-(2-chlorophenyl)quinolin-4-yl)piperazin-1-yl)prop-2-en-1-one], the Binding % is reported as “++ (++indicates binding activity greater than 25% and up to 50%)”. For `C=CC(=O)N1CCN(c2ncnc3cc(Cl)c(-c4ccc(Cl)cc4)cc23)CC1C(N)=O` (stereo not drawn) [Compound I-44, 1-acryloyl-4-(7-chloro-6-(4-chlorophenyl)quinazolin-4-yl)piperazin-2-carboxamide], the Binding % was “+++ (+++indicates binding activity greater than 50% and up to 75%)”. For `C=CC(=O)N1CCC(Nc2n[nH]c3cc(Cl)c(-c4ccccc4Cl)cc23)CC1` [Compound I-31, 1-(4-(6-chloro-5-(2-chlorophenyl)-1H-indazol-3-ylamino)piperidin-1-yl)prop-2-en-1-one], the Binding % was “+ (+indicates binding activity from 5% to 25%)”. With `C=CC(=O)N1CCN(c2ncnc3cc(Cl)c(-c4ccc(Cl)cc4OC)cc23)CC1` [Compound I-13, 1-(4-(7-chloro-6-(4-chloro-2-methoxyphenyl)quinoazlin-4-yl)piperazin-1-yl)prop-2-en-1-one] the Binding % was “++ (++indicates binding activity greater than 25% and up to 50%)”. For `C=CC(=O)N1CCN(c2ncnc3cc(Cl)c(-c4ccccc4O)cc23)CC1` [Compound I-15, 1-(4-(7-chloro-6-(2-hydroxyphenyl)quinoazlin-4-yl)piperazin-1-yl)prop-2-en-1-one], the Binding % was “+++ (+++indicates binding activity greater than 50% and up to 75%)”.

Same assay, conditions: compounds 48-246, measured at 2 h
For `C=CC(=O)N1CCN(c2ncnc3cc(-c4cccc5c4CCC(=O)N5)c(Cl)cc23)CC1` [Compound I-205, 5-(4-(4-acryloylpiperazin-1-yl)-6-chloroquinazolin-7-yl)-3,4-dihydroquinolin-2(1H)-one], the Binding % was “+ (+indicates binding activity from 5% to 25%)”. `C=CC(=O)N1CCN(c2ncnc3cc(-c4c(F)cccc4OC)c(Cl)cc23)CC1` [Compound I-194, 1-(4-(6-chloro-7-(2-fluoro-6-methoxyphenyl)quinazolin-4-yl)piperazin-1-yl)prop-2-en-1-one] was tested, and the Binding % was “++++ (++++indicates binding activity greater than 75%)”. For `CCOC(=O)/C=C/C(=O)N1CCN(c2ncnc3cc(-c4ccc(F)cc4F)c(Cl)cc23)CC1` [Compound I-239, (E)-ethyl 4-(4-(6-chloro-7-(2,4-difluorophenyl)quinazolin-4-yl)piperazin-1-yl)-4-oxobut-2-enoate], the Binding % was “+++ (+++indicates binding activity greater than 50% and up to 75%)”. `C=CC(=O)N1CCN(c2ncnc3cc(-c4ccccc4C(N)=O)c(Cl)cc23)CC1` [Compound I-98, 2-(4-(4-acryloylpiperazin-1-yl)-6-chloroquinazolin-7-yl)benzamide] was tested, and the Binding % was “+ (+indicates binding activity from 5% to 25%)”. In the case of `C=CC(=O)N1CCN(c2ncnc3cc(-c4cccc5ccc(=O)[nH]c45)c(Cl)cc23)CC1` [Compound I-240, 8-(4-(4-acryloylpiperazin-1-yl)-6-chloroquinazolin-7-yl)quinolin-2(1H)-one], the Binding % is reported as “+++ (+++indicates binding activity greater than 50% and up to 75%)”. In the case of `C=CC(=O)N1CCN(c2ncnc3cc(-c4ccccc4)c(Cl)cc23)CC1CC#N` (stereo not drawn) [Compound I-85, 2-(1-acryloyl-4-(6-chloro-7-phenylquinazolin-4-yl)piperazin-2-yl)acetonitrile], the Binding % is reported as “+++ (+++indicates binding activity greater than 50% and up to 75%)”. With `C=CC(=O)N1CCN(c2ncnc3cc(Cl)c(-c4ccccc4)cc23)CC1C#N` (stereo not drawn) [Compound I-52, 1-acryloyl-4-(7-chloro-6-phenylquinazolin-4-yl)piperazine-2-carbonitrile] the Binding % was “++++ (++++indicates binding activity greater than 75%)”. With `C=CC(=O)N1CCN(c2ncnc3cc(-c4cc(Cl)ccc4Cl)c(Cl)cc23)CC1` [Compound I-101, 1-(4-(6-chloro-7-(2,5-dichlorophenyl)quinazolin-4-yl)piperazin-1-yl)prop-2-en-1-one] the Binding % was “+++ (+++indicates binding activity greater than 50% and up to 75%)”. For `C=CC(=O)N1CCN(c2ncnc3cc(-c4ccc(Cl)cc4F)c(Cl)cc23)CC1` [Compound I-114, 1-(4-(6-chloro-7-(4-chloro-2-fluorophenyl)quinazolin-4-yl)piperazin-1-yl)prop-2-en-1-one], the Binding % was “+++ (+++indicates binding activity greater than 50% and up to 75%)”. For `C=CC(=O)N1CCN(c2c(C#N)cnc3cc(-c4ccccc4F)c(Cl)cc23)CC1` [Compound I-127], the Binding % was “++++ (++++indicates binding activity greater than 75%)”. In the case of `C=CC(=O)N1CCN(c2ncnc3cc(Cl)c(Br)cc23)CC1C#N` (stereo not drawn) [Compound I-49, 1-acryloyl-4-(6-bromo-7-chloroquinazolin-4-yl)piperazine-2-carbonitrile], the Binding % is reported as “++++ (++++indicates binding activity greater than 75%)”. For `C=CC(=O)N1CCN(c2ncnc3cc(-c4ccnc5ccccc45)c(Cl)cc23)CC1` [Compound I-214, 1-(4-(6-chloro-7-(quinolin-4-yl)quinazolin-4-yl)piperazin-1-yl)prop-2-en-1-one], the Binding % was “+ (+indicates binding activity from 5% to 25%)”.

Same assay, conditions: compounds 247-342, measured at 30 min
`C=CC(=O)N1CCN(c2ncnc3cc(-c4cccc(-c5ccn[nH]5)c4)c(Cl)cc23)CC1` [Compound I-276, 1-(4-(7-(3-(1H-pyrazol-5-yl)phenyl)-6-chloroquinazolin-4-yl)piperazin-1-yl)prop-2-en-1-one] was tested, and the Binding % was “+ (+indicates binding activity from 5% to 25%)”. With `C=CC(=O)N1CCN(c2ncnc3c(OC)c(-c4ccc(F)cc4F)c(Cl)cc23)CC1` [Compound 306, 1-(4-(6-chloro-7-(2,4-difluorophenyl)-8-methoxyquinazolin-4-yl)piperazin-1-yl)prop-2-en-1-one] the Binding % was “++ (++indicates binding activity greater than 25% and up to 50%)”. `C=CC(=O)N1CCN(c2ncnc3cc(-c4cc(C(C)(C)O)ccc4F)c(Cl)cc23)CC1` [Compound I-267, 1-(4-(6-chloro-7-(2-fluoro-5-(2-hydroxypropan-2-yl)phenyl)quinazolin-4-yl)piperazin-1-yl)prop-2-en-1-one] was tested, and the Binding % was “+ (+indicates binding activity from 5% to 25%)”. With `C=CC(=O)N1CCN(c2ncnc3c(F)c(-c4ccc(F)cc4C(F)(F)F)c(Cl)cc23)CC1` [Compound I-275, 1-(4-(6-chloro-8-fluoro-7-(4-fluoro-2-(trifluoromethyl)phenyl)quinazolin-4-yl)piperazin-1-yl)prop-2-en-1-one] the Binding % was “++ (++indicates binding activity greater than 25% and up to 50%)”. In the case of `C=CC(=O)N1CCN(c2nc(NC3CCOC3)nc3cc(-c4c(C)ccc5[nH]ncc45)c(Cl)cc23)CC1` (stereo not drawn) [Compound 330, 1-(4-(6-chloro-7-(5-methyl-1H-indazol-4-yl)-2-(tetrahydrofuran-3-ylamino)quinazolin-4-yl)piperazin-1-yl)prop-2-en-1-one], the Binding % is reported as “++ (++indicates binding activity greater than 25% and up to 50%)”. With `CN(C)C/C=C/C(=O)N1CCN(c2ncnc3c(F)c(-c4cc(O)cc5ccccc45)c(Cl)cc23)CC1` [Compound 325, (E)-1-(4-(6-chloro-8-fluoro-7-(3-hydroxynaphthalen-1-yl)quinazolin-4-yl)piperazin-1-yl)-4-(dimethylamino)but-2-en-1-one] the Binding % was “++ (++indicates binding activity greater than 25% and up to 50%)”. `C=CC(=O)N1CCN(c2ncnc3c(F)c(-c4ccc(F)cc4F)c(C)cc23)CC1` [Compound I-292, 1-(4-(7-(2,4-difluorophenyl)-8-fluoro-6-methylquinazolin-4-yl)piperazin-1-yl)prop-2-en-1-one] was tested, and the Binding % was “+ (+indicates binding activity from 5% to 25%)”. `C=CC(=O)N1CCN(c2nc(NCCN(C)C)nc3c(F)c(-c4c(C)ccc5[nH]ncc45)c(Cl)cc23)CC1` [Compound I-253] was tested, and the Binding % was “++++ (++++indicates binding activity greater than 75%)”.

Same assay, conditions: determined at 2 hrs
`C=CC(=O)N1CC(N2CCN(c3cc(-c4cc(CC)c(Cl)cc4O)n[nH]3)CC2)C1` [II-72, 1-(3-(4-(3-(4-chloro-5-ethyl-2-hydroxyphenyl)-1H-pyrazol-5-yl)piperazin-1-yl)azetidin-1-yl)prop-2-en-1-one] was tested, and the Binding % was “+ (+indicates binding activity from 5% to 20%)”.

Same assay, conditions: determined at 24 hrs
For “1-(4-(2′,6-dichloro-4-methoxybiphenylcarbonyl)piperazin-1-yl)prop-2-en-1-one [III-1]”, the Binding % was “+ (+indicates binding activity from 5% to 10%)”. `C=CC(=O)N1CC(N2CCN(C(=O)Cc3c[nH]c4ccccc34)CC2)C1` [II-25, 1-(3-(4-(2-(1H-indol-3-yl)acetyl)piperazin-1-yl)azetidin-1-yl)prop-2-en-1-one] was tested, and the Binding % was “+ (+indicates binding activity from 5% to 15%)”.
